Reference: ChEMBL document CHEMBL1201862, “PubChem BioAssay data set” (2004)
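Where inhibition never reached the appropriate level, the endpoint shown equals the highest concentration tested. Otherwise, values were interpolated linearly from a five-concentration, 48-hour dose response in 96-well plates. GI50 is the concentration that inhibits growth by half.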 Activity calls are given as the source filed them. Cut-off read from the data, not from the text of the source: active = GI50 up to about 1.1 µM and inactive = higher.

What was measured:
Test in all cases: NCI-60 cell line screen, 48 h
[1] = test system: 786-0
[2] = test system: A498
[3] = test system: A549
[4] = test system: ACHN
[5] = test system: CAKI-1
[6] = test system: CCRF-CEM
[7] = test system: COLO 205
[8] = test system: DLD-1
[9] = test system: DMS-114
[10] = test system: DMS-273
[11] = test system: HCT-116
[12] = test system: HCT-15
[13] = test system: HL-60
[14] = test system: HOP-18
[15] = test system: HOP-62
[16] = test system: HOP-92
[17] = test system: HT-29
[18] = test system: IGROV-1
[19] = test system: K562
[20] = test system: KM-20L2
[21] = test system: KM12
[22] = test system: LOX IMVI
[23] = test system: LXFL 529
[24] = test system: M14
[25] = test system: M19-MEL
[26] = test system: MOLT-4
[27] = test system: Malme-3M
[28] = test system: NCI-H226
[29] = test system: NCI-H23
[30] = test system: NCI-H460
[31] = test system: NCI-H522
[32] = test system: OVCAR-3
[33] = test system: OVCAR-4
[34] = test system: OVCAR-5
[35] = test system: OVCAR-8
[36] = test system: RPMI-8226
[37] = test system: RXF 393
[38] = test system: SF-268
[39] = test system: SF-295
[40] = test system: SF-539
[41] = test system: SK-MEL-28
[42] = test system: SK-MEL-2
[43] = test system: SK-MEL-5
[44] = test system: SK-OV-3
[45] = test system: SN12C
[46] = test system: SNB-75
[47] = test system: SNB-78
[48] = test system: SR
[49] = test system: SW-620
[50] = test system: TK-10
[51] = test system: U-251
[52] = test system: UACC-257
[53] = test system: UACC-62
[54] = test system: UO-31

Measured: GI50

Clc1ccc(CCn2cncn2)cc1
inactive: [1] > 100 µM | [2] > 100 µM | [3] > 100 µM | [4] > 100 µM | [5] > 100 µM | [6] > 100 µM | [7] > 100 µM | [8] > 100 µM | [9] > 100 µM | [10] > 100 µM | [11] > 100 µM | [13] > 100 µM | [14] > 100 µM | [15] > 100 µM | [16] > 100 µM | [17] > 100 µM | [18] > 100 µM | [19] > 100 µM | [20] > 100 µM | [21] > 100 µM | [22] > 100 µM | [23] > 100 µM | [24] > 100 µM | [25] > 100 µM | [26] > 100 µM | [27] > 100 µM | [28] > 100 µM | [29] > 100 µM | [30] > 100 µM | [31] > 100 µM | [32] > 100 µM | [33] > 100 µM | [34] > 100 µM | [35] > 100 µM | [36] > 100 µM | [37] > 100 µM | [38] > 100 µM | [39] > 100 µM | [40] > 100 µM | [41] > 100 µM | [42] > 100 µM | [43] > 100 µM | [44] > 100 µM | [45] > 100 µM | [46] 86.3 µM | [47] > 100 µM | [48] > 100 µM | [49] > 100 µM | [50] > 100 µM | [51] > 100 µM | [52] > 100 µM | [53] > 100 µM | [54] > 100 µM
> 100 µM: [12]
